Where a SMILES comes first, the peptide text is derived from it. [ ]: non-standard residue; d: D form. Dmt = Cc1cc(O)cc(C)c1C[C@H](N)C(=O)O

Data set [1] can be described thus: Release/stability of API in ammonium bifluoride, stability-indicating RP-HPLC. In kind it is physicochemical. The note with it: for modification of the API by the formulation process: impurities in fresh API vs API released from microparticle formulations.
Data set [2] deals with age-related visual impairment. The note with it: Alam et al., Disease Models & Mechanisms (2021); cited from earlier work.
Data set [3] relates to patients with intermediate age-related macular degeneration (AMD) and high-risk drusen (HRD). The note with it: subcutaneous administration, ReCLAIM, Ophthalmology Science 2022; cited from earlier work.

As to `Cc1cc(O)cc(C)c1C[C@H](NC(=O)[C@H](N)CCCNC(=N)N)C(=O)N[C@@H](CCCCN)C(=O)N[C@@H](Cc1ccccc1)C(N)=O` [elamipretide] (H-[dR][Dmt]KF-NH2), the “modification of the API by the formulation process” value in data set [1] was “not significantly modified”. The “treatment of photopic age-related loss of spatial vision” value in data set [2] is “effective”. Further, the safety and tolerability entry in data set [3] was “safe and well-tolerated”.

Turning to `Cc1cc(O)cc(C)c1C[C@H](NC(=O)[C@H](N)CCCNC(=N)N)C(=O)N[C@@H](CCCCN)c1nc(Cc2ccccc2)no1` [Compound I], the Purity in data set [1] (Control/standard: 16 μg/mL Compound I in H2O) turned out to be 99.1%; in data set [1] (Control/standard: 40 μg/mL Compound I in H2O) it was 98.4%; in data set [1] (Spiked: 16 μg/mL Compound I in 0.1M NH4HF2), 99.2%; in data set [1] (Spiked: 40 μg/mL Compound I in 0.1M NH4HF2), 98.6%. Further, the “modification of the API by the formulation process” value in data set [1] is given as “not significantly modified”.
